Assay results as given in ChEMBL document CHEMBL4152297, “Ligand-selective small molecule modulators of the constitutively active vGPCR US28” (Eur J Med Chem, 2018).
Calls of active or inactive are those of the source. No cut-off for these calls is given here.

How the values were obtained:
HEK293 [1] = assay: Modulation of basal activity of HCMV US28 expressed in tetracyclin-induced HEK293 cells assessed as change in inositol phosphate accumulation at 10 uM using [3H]-myo-inositol by scintillation proximity assay relative to control; assay type: cell-based; conditions: Human betaherpesvirus 5
[2] = Modulation of basal activity of HCMV US28 expressed in tetracyclin-induced HEK293 cells assessed as change in inositol phosphate accumulation using [3H]-myo-inositol by scintillation proximity assay; assay type: cell-based; conditions: Human betaherpesvirus 5, HEK293
HEK293 [3] = assay: Modulation of basal activity of HCMV US28 delta300 mutant expressed in tetracyclin-induced HEK293 cells assessed as change in inositol phosphate accumulation at 10 uM using [3H]-myo-inositol by scintillation proximity assay relative to control; assay type: cell-based; conditions: Human betaherpesvirus 5
[4] = Modulation of basal activity of HCMV US28 delta300 mutant expressed in tetracyclin-induced HEK293 cells assessed as change in inositol phosphate accumulation using [3H]-myo-inositol by scintillation proximity assay; assay type: cell-based; conditions: Human betaherpesvirus 5, HEK293
HEK293 [5] = assay: Displacement of [125I]-CX3CL1 from HCMV US28 expressed in HEK293 cells at 10 uM after 3 hrs by gamma counting method relative to control; assay type: cell-based; conditions: Human betaherpesvirus 5
HEK293 [6] = assay: Displacement of [125I]-CCL2 from HCMV US28 expressed in HEK293 cells at 10 uM after 3 hrs by gamma counting method relative to control; assay type: cell-based; conditions: Human betaherpesvirus 5
[7] = Displacement of [125I]-CCL2 from HCMV US28 expressed in HEK293 cells after 3 hrs by gamma counting method; assay type: cell-based, Human betaherpesvirus 5
HEK293 [8] = assay: Effect on inositol phosphate accumulation in HEK293 cells at 10 uM using [3H]-myo-inositol by scintillation proximity assay; assay type: cell-based; conditions: human, hek293, 10 µM
[9] = Agonist activity at HCMV US28 expressed in African green monkey COS7 cells assessed as increase in inositol phosphate accumulation using [3H]-myo-inositol after 90 mins by scintillation proximity assay; assay type: cell-based; conditions: Human betaherpesvirus 5, COS-7
[10] = Inverse agonist activity at HCMV US28 expressed in African green monkey COS7 cells assessed as inhibition of inositol phosphate accumulation using [3H]-myo-inositol after 90 mins by scintillation proximity assay; assay type: cell-based; conditions: Human betaherpesvirus 5, COS-7
HEK293 [11] = assay: Displacement of [125I]-CCL4 from HCMV US28 expressed in HEK293 cells at 10 uM after 3 hrs by gamma counting method relative to control; assay type: cell-based; conditions: Human betaherpesvirus 5

| Compound | Efficacy (HEK293 [1]) | EC50 ([2]; read-out: EC50) | EC50 ([2]; read-out: pEC50 (converted)) | Efficacy (HEK293 [3]) | EC50 ([4]; read-out: EC50) | EC50 ([4]; read-out: pEC50 (converted)) | Efficacy (HEK293 [6]) | also measured |
| --- | --- | --- | --- | --- | --- | --- | --- | --- |
| O=C(CN1CCN(Cc2csc(-c3ccccc3)n2)CC1)Nc1ccc(F)cc1 | -17% |  |  |  |  |  |  |  |
| Cc1nc2ccccc2n1CC1CCN(CC(=O)Nc2ccc(OC(F)(F)F)cc2)CC1 | 26% | 269 nM | 251 nM | 86% | 103 nM | 100 nM | 78% | inhibition (HEK293 [5]): 32%; IC50 [7]: 2110 nM; pIC50 [7]: 5.68 |
| NC(=O)c1ccc(NC(=O)CN2CCC(Cn3cnc4ccccc43)CC2)cc1 |  |  |  |  |  |  | -4% |  |
| O=C(CN1CCN(Cc2csc3ccccc23)CC1)NC1CCCC1 |  |  |  | 56% | > 10000 nM | < 10000 nM |  |  |
| O=C(CN1CCC(C(=O)N2CCN(c3ccc(F)cc3)CC2)CC1)Nc1ccc(F)cc1 | -32% | 1570 nM | 1550 to 1580 nM |  |  |  |  |  |
| NC(=O)c1c(NC(=O)CN2CCN(Cc3ccc4c(c3)OCO4)CC2)sc2c1CCCC2 | -31% | 89 nM | 100 nM |  |  |  |  |  |
| O=C(CN1CCN(Cc2nc(-c3ccc(F)cc3)no2)CC1)Nc1ccc(F)cc1 | -54% | 3040 nM | 3020 to 3160 nM | -23% | 1140 nM | 1260 nM |  | Activity (HEK293 [8]): Toxic |
| CC(=O)c1ccc(N2CCN(Cc3nc4scc(-c5ccccc5)c4c(=O)[nH]3)CC2)cc1 |  |  |  |  |  |  |  | EC50 [9]: 950 nM |
| CNC(=O)NC(=O)CN1CCC(Cn2c(C)nc3ccccc32)CC1 |  |  |  |  |  |  | 0% |  |
| Cc1cc2ncn(CC3CCN(CC(=O)Nc4ccccc4C(F)(F)F)CC3)c2cc1C | -12% | 80700 nM | 79400 nM | 54% | 19800 nM | 20000 nM |  |  |
| O=C(CN1CCC(Cn2cnc3ccccc32)CC1)N1CCN(c2ccccc2)CC1 | -27% | 3890 nM | 3980 nM | 77% | 4800 nM | 5010 nM |  |  |
| O=C(CN1CCC(Cn2cnc3ccccc32)CC1)Nc1nccs1 |  |  |  |  |  |  | 5% |  |
| Cc1nc2ccccc2n1CC1CCN(CC(=O)Nc2cc(C(F)(F)F)ccc2Cl)CC1 | -43% | 344 nM | 316 nM |  |  |  | 24% | IC50 [7]: 2990 nM; pIC50 [7]: 5.52 |
| CCc1ccc(-c2nc(CN3CCN(CC(=O)NC4CC4)CC3)cs2)cc1 |  |  |  | 51% | 11000 nM | 10000 nM |  |  |
| Cc1ncc(CN2CCN(CC(=O)Nc3ccc(F)cc3)CC2)s1 | -20% |  |  |  |  |  |  |  |
| O=C(CN1CCC(Cn2c(C(F)(F)F)nc3ccccc32)CC1)Nc1ccccc1C(F)(F)F | -28% | 1140 nM | 1260 nM |  |  |  |  |  |
| Cc1cc2ncn(CC3CCN(CC(=O)Nc4ccc5c(c4)OCO5)CC3)c2cc1C |  |  |  | 58% | 1520 nM | 1580 nM |  |  |
| Cc1nc2ccccc2n1CC1CCN(CC(=O)Nc2ccc(F)cc2F)CC1 | -39% | 985 nM | 1000 nM |  |  |  | 10% | inhibition (HEK293 [5]): inactive; EC50 [10]: 1760 nM; inhibition (HEK293 [11]): 10% |
| O=C(CN1CCC(Cn2cnc3ccccc32)CC1)Nc1ccccn1 |  |  |  |  |  |  | 10% |  |
| O=C(CN1CCN(CC2CCCCC2)CC1)Nc1ccc(F)cc1 | -15% |  |  |  |  |  |  |  |
| N#Cc1c(CN2CCN(CC(=O)Nc3ccccc3Cl)CC2)cn2ccccc12 | -15% | 67 nM | 63.1 nM |  |  |  |  |  |

| Compound | Efficacy (HEK293 [1]) | EC50 ([2]; read-out: EC50) | EC50 ([2]; read-out: pEC50 (converted)) | Efficacy (HEK293 [3]) | EC50 ([4]; read-out: EC50) | EC50 ([4]; read-out: pEC50 (converted)) | Efficacy (HEK293 [6]) | also measured |
| --- | --- | --- | --- | --- | --- | --- | --- | --- |
| NC(=O)c1ccc(NC(=O)CN2CCC(Cn3c(COc4ccccc4)nc4ccccc43)CC2)cc1 |  |  |  | 77% | 7960 nM | 7940 nM |  |  |
| O=C(CN1CCN(Cc2cccc3ccccc23)CC1)Nc1ccc2c(c1)OCO2 | -24% | 39 nM | 39.8 nM | 53% | > 10000 nM | < 10000 nM |  |  |
| CC(C(=O)Nc1sccc1C(N)=O)N1CCN(Cc2nc3ccccc3s2)CC1 (centres undefined) | -46% | 3840 nM | 3980 nM |  |  |  |  |  |
| O=C(CN1CCN(Cc2nc3ccccc3[nH]2)CC1)Nc1ccc(F)cc1F |  |  |  |  |  |  | -7% |  |
| O=C(CN1CCN(Cc2nc(-c3cccc(C(F)(F)F)c3)no2)CC1)NC1CCCCC1 | -23% | 19100 nM | 20000 nM |  |  |  |  |  |
| Cc1sc2nc(CN3CCN(CC(=O)NC4CCC(C)CC4)CC3)[nH]c(=O)c2c1C (centres undefined) |  |  |  | 118% | 1560 nM | 1580 nM |  | inhibition (HEK293 [5]): 32%; inhibition (HEK293 [6]): Active |
| Cc1nc2ccccc2n1CC1CCN(CC(=O)NCCc2ccccc2)CC1 |  |  |  | 107% | 1800 nM | 2000 nM |  | IC50 [7]: 5290 nM |
| Cc1ccc2nc(CN3CCN(CC(=O)Nc4ccc(F)cc4)CC3)cc(=O)n2c1 | -10% |  |  |  |  |  |  |  |
| COc1ccc(-c2csc(NC(=O)CN3CCN(Cc4ccc5c(c4)OCO5)CC3)n2)cc1 | -30% | 1800 nM | 2000 nM |  |  |  |  |  |
| Cn1c(CN2CCN(CC(=O)Nc3ccc(F)cc3F)CC2)nc2ccccc21 | -15% | 133 nM | 126 nM | 75% | 9880 nM | 10000 nM | 6% |  |
| Cn1c(CN2CCN(CC(=O)Nc3ccc(OC(F)(F)F)cc3)CC2)nc2ccccc21 |  |  |  | 59% | 3360 nM | 3160 nM | 7% |  |
| Cc1nc2ccccc2n1CC1CCN(CC(=O)Nc2cccnc2)CC1 |  |  |  |  |  |  | -2% |  |
| O=C(CN1CCC(Cn2cnc3ccccc32)CC1)Nc1nc2ccc(F)cc2s1 |  |  |  |  |  |  | 20% | IC50 [7]: > 10000 nM |
| Cc1cc2ncn(CC3CCN(CC(=O)NCc4ccc(F)cc4)CC3)c2cc1C | -16% | 33 nM | 31.6 nM |  |  |  | 25% | IC50 [7]: > 10000 nM |
| O=C(CN1CCN(CN2C(=O)NC3(CCCCC3)C2=O)CC1)Nc1ccc(OC(F)(F)F)cc1 | -12% | 536 nM | 501 nM |  |  |  |  |  |
| Cc1cc(C)n(CC2CCN(CC(=O)N3CCc4ccccc43)CC2)n1 |  |  |  | 76% | > 10000 nM | < 10000 nM |  |  |
| COC(=O)c1ccc(NC(=O)CN2CCC(Cn3c(C)nc4ccccc43)CC2)cc1 |  |  |  | 70% | 884 nM | 794 nM | 32% | IC50 [7]: 9560 nM; pIC50 [7]: 5.02 |
| O=C(CN1CCN(Cc2nc3ccccc3n2Cc2ccccc2)CC1)Nc1ccccc1F | -20% | 9370 nM | 10000 nM |  |  |  |  |  |
| Cc1nc2ccccc2n1CC1CCN(Cc2ccc(F)c(F)c2)CC1 |  |  |  | 93% | 1480 nM | 1580 nM | 46% | IC50 [7]: 5260 nM; pIC50 [7]: 5.28 |
| Cc1ccc(NC(=O)CN2CCC(Cn3cnc4ccccc43)CC2)cc1Cl | 21% | 254 nM | 251 nM | 50% | 182 nM | 200 nM | 71% | IC50 [7]: 1520 nM; pIC50 [7]: 5.82 |
